According to patent publication US7851467B2, “Carbamate compounds as 5-HT4 receptor agonists” (Theravance, Inc., priority 2005, dated 2010):

Target: T1, human 5-HT4(c) receptor (Homo sapiens, UniProt Q13639)
T1 construct: expressed in transfected cells; host or cells: HEK-293
Assay: Radioligand binding assay on 5-HT4(c) human receptors ([3H]-GR113808 displacement)
Settings: HEK-293 membranes, [3H]-GR113808 at 0.15 nM, read-out: pKi value (converted)
Description: Assay 1: Radioligand Binding Assay on 5-HT4(C) Human Receptors a. Membrane Preparation 5-HT4(c)
HEK-293 (human embryonic kidney) cells stably-transfected with human 5-HT4(C) receptor cDNA (Bmax=˜6.0 pmol/mg protein, as determined using [^3H]-GR113808 membrane radioligand binding assay) were grown in T-225 flasks in Dulbecco's Modified Eagles Medium (DMEM) containing 4,500 mg/L D-glucose and pyridoxine hydrochloride (GIBCO-Invitrogen Corp., Carlsbad Calif.: Cat #11965) supplemented with 10% fetal bovine serum (FBS) (GIBCO-Invitrogen Corp.: Cat #10437), 2 mM L-glutamine and (100 units) penicillin-(100 μg) streptomycin/ml (GIBCO-Invitrogen Corp.: Cat #15140) in a 5% CO2, humidified incubator at 37° C. […]
For the membrane preparation, cell pellets were resuspended in ice-cold 50 mM 4-(2-hydroxyethyl)-1-piperazineethanesulphonic acid (HEPES), pH 7.4 (membrane preparation buffer) (40 mL/total cell yield from 30-40 T225 flasks) and homogenized using a polytron disrupter (setting 19, 2×10 s) on ice. […] Protein concentration of the membrane suspension was determined by the method of Bradford (Bradford, 1976). […]
Test compounds were received as 10 mM stock solutions in DMSO and diluted to 400 μM into 50 mM HEPES pH 7.4 at 25° C., containing 0.1% BSA, and serial dilutions (1:5) then made in the same buffer. Non-specific binding was determined in the presence of 1 μM unlabeled GR113808. […]

T1 sequence (Q13639 1-380 isoform Q13639-4): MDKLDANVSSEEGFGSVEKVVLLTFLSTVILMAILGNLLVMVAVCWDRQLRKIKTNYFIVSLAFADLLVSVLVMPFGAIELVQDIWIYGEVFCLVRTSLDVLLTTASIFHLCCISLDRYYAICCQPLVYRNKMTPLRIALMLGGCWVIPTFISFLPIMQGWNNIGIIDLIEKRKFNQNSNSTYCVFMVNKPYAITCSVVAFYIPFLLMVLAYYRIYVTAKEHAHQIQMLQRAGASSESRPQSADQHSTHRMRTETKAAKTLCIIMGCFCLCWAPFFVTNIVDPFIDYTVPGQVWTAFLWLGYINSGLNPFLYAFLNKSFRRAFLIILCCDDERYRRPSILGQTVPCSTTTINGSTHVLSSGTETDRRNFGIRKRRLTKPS

Compound: CC(C)n1c(=O)n(C(=O)N[C@H]2C[C@H]3CC[C@@H](C2)N3CCCOC(=O)N2CCN(C(=O)C3CCCO3)CC2)c2ccccc21 (stereo partly drawn) [Example 1, 4-(tetrahydrofuran-2-carbonyl)piperazine-1-carboxylic acid 3-{(1S,3R,5R)-3-[(3-isopropyl-2-oxo-2,3-dihydrobenzoimidazole-1-carbonyl)amino]-8-aza-bicyclo[3.2.1]oct-8-yl}propyl ester]
- Ki: 12.6 nM
